Assay results reported in patent US20230085307A1, “PYRIDAZINONE COMPOUND AND HERBICIDE” (NISSAN CHEMICAL CORPORATION, priority 2019, published 2023).

What was measured:
barnyard grass [1] = experiment: Test Example 3: herbicidal effect by foliage application, Wagner pot (Table 18, symbol H); assay type: in vivo, barnyard grass (Echinochloa crus-galli); settings: for herbicidal effect on H (barnyard grass), rating 0-5: 80 g/ha; for herbicidal effect on barnyard grass (H): 320 g/ha
Experimental: (§1) [Test Example 3] Herbicidal Effect Test by Foliage Application After alluvial soil was placed into 1/10000 are of Wagner pot, water was poured and mixed to form a submerged condition having a water depth of 0.1 cm to 0.5 cm. Seeds of barnyard grass, Chinese sprangletop, rice flat sedge, and rice were sowed and the pot was placed in a greenhouse at 25° C. to 30° C. for growth of the plants. After 14-day growth of the plants, the emulsion agent of the compound of the present invention prepared according to Formulation Example 2 was diluted with water so as to achieve a predetermined herbicide amount, and the diluted emulsion agent was uniformly applied to a foliage part with a small-sized spray. Three weeks after the herbicide application, the effect of the herbicide on each plant was evaluated according to the criteria of Test Example 1.

rice flat sedge = experiment: Test Example 3: herbicidal effect by foliage application, Wagner pot (Table 18, symbol E); assay type: in vivo, rice flat sedge (Cyperus iria); settings: for herbicidal effect on E (rice flat sedge), rating 0-5: 80 g/ha; for herbicidal effect on rice flat sedge (E): 320 g/ha
Experimental: as §1

Chinese sprangletop = experiment: Test Example 3: herbicidal effect by foliage application, Wagner pot (Table 18, symbol D); assay type: in vivo, chinese sprangletop (Leptochloa chinensis); settings: for herbicidal effect on D (Chinese sprangletop), rating 0-5: 80 g/ha; for herbicidal effect on Chinese sprangletop (D): 320 g/ha
Experimental: as §1

wild oat = experiment: Test Example 5: herbicidal effect by foliage application, plastic box (Table 20, symbol I); assay type: in vivo, wild oat (Avena fatua); settings: foliage application, 320 g/ha, three weeks after application
Excerpt: (§2) [Test Example 5] Herbicidal Effect Test by Foliage Application
(§3) Sterilized diluvial soil was placed in a plastic box having a length of 21 cm, a width of 13 cm, and a depth of 7 cm. The seeds of each of southern crabgrass, green foxtail, barnyard grass, wild oat, blackgrass, Italian ryegrass, windgrass, velvetleaf, redroot pigweed, lambsquarters, chickweed, false cleavers, persian speedwell, corn, soybean, rice, wheat, beet, and rapeseed were sowed in a spot-like manner and covered with the soil having a thickness of about 1.5 cm. Thereafter, the plants were grown in a greenhouse at 25° C. to 30° C. After 14-day growth of the plants, the emulsion agent of the compound of the present invention prepared according to Formulation Example 2 was diluted with water so as to achieve a predetermined herbicide amount, and the diluted emulsion agent was uniformly applied to a foliage part with a small-sized spray. Three weeks after the herbicide application, the effect of the herbicide on each plant was evaluated according to the criteria of Test Example 1.

southern crabgrass = experiment: Test Example 5: herbicidal effect by foliage application, plastic box (Table 20, symbol F); assay type: in vivo, southern crabgrass (Digitaria ciliaris); settings: foliage application, 320 g/ha, three weeks after application
Excerpt: as §2, §3

Italian ryegrass = experiment: Test Example 5: herbicidal effect by foliage application, plastic box (Table 20, symbol K); assay type: in vivo, Italian ryegrass (Lolium multiflorum); settings: foliage application, 320 g/ha, three weeks after application
Excerpt: as §2, §3

green foxtail = experiment: Test Example 5: herbicidal effect by foliage application, plastic box (Table 20, symbol G); assay type: in vivo, green foxtail (Setaria viridis); settings: foliage application, 320 g/ha, three weeks after application
Excerpt: as §2, §3

barnyard grass [2] = experiment: Test Example 5: herbicidal effect by foliage application, plastic box (Table 20, symbol H); assay type: in vivo, barnyard grass (Echinochloa crus-galli); settings: foliage application, 320 g/ha, three weeks after application
Excerpt: as §2, §3

velvetleaf = experiment: Test Example 5: herbicidal effect by foliage application, plastic box (Table 20, symbol M); assay type: in vivo, velvetleaf (Abutilon theophrasti); settings: foliage application, 320 g/ha, three weeks after application
Excerpt: as §2, §3

windgrass = experiment: Test Example 5: herbicidal effect by foliage application, plastic box (Table 20, symbol L); assay type: in vivo, windgrass (Apera spica-venti); settings: foliage application, 320 g/ha, three weeks after application
Excerpt: as §2, §3

lambsquarters = experiment: Test Example 5: herbicidal effect by foliage application, plastic box (Table 20, symbol O); assay type: in vivo, lambsquarters (Chenopodium album); settings: foliage application, 320 g/ha, three weeks after application
Excerpt: as §2, §3

blackgrass = experiment: Test Example 5: herbicidal effect by foliage application, plastic box (Table 20, symbol J); assay type: in vivo, blackgrass (Alopecurus myosuroides); settings: foliage application, 320 g/ha, three weeks after application
Excerpt: as §2, §3

persian speedwell = experiment: Test Example 5: herbicidal effect by foliage application, plastic box (Table 20, symbol R); assay type: in vivo, Persian speedwell (Veronica persica); settings: foliage application, 320 g/ha, three weeks after application
Excerpt: as §2, §3

CCCC(=O)Oc1c(OC)nn(C)c(=O)c1-c1c(-c2ccc(Oc3ccccc3)cc2)sc2ccccc12 [1-165]
herbicidal effect on H (barnyard grass), rating 0-5 (barnyard grass [1]): 2 (Herbicidal rate of 20% or more and less than 40%) | herbicidal effect on E (rice flat sedge), rating 0-5 (rice flat sedge): 0 (Herbicidal rate of 5% or less (almost no effect)) | herbicidal effect on D (Chinese sprangletop), rating 0-5 (Chinese sprangletop): 0 (Herbicidal rate of 5% or less (almost no effect))

CCCC(=O)Oc1c(OC)nn(C)c(=O)c1-c1c(-c2ccsc2)sc2ccccc12 [1-193]
herbicidal effect on H (barnyard grass), rating 0-5 (barnyard grass [1]): 2 (Herbicidal rate of 20% or more and less than 40%) | herbicidal effect on E (rice flat sedge), rating 0-5 (rice flat sedge): 0 (Herbicidal rate of 5% or less (almost no effect)) | herbicidal effect on D (Chinese sprangletop), rating 0-5 (Chinese sprangletop): 1 (Herbicidal rate of 5% or more and less than 20%)

CCCC(=O)Oc1c(C)nn(C)c(=O)c1-c1c(-c2ccc(F)cc2)sc2cc(OC)c(OC)cc12 [5-058]
herbicidal effect on wild oat (I) (wild oat): 0 (Herbicidal rate of 5% or less (almost no effect)) | herbicidal effect on southern crabgrass (F) (southern crabgrass): 0 (Herbicidal rate of 5% or less (almost no effect)) | herbicidal effect on Italian ryegrass (K) (Italian ryegrass): 1 (Herbicidal rate of 5% or more and less than 20%) | herbicidal effect on green foxtail (G) (green foxtail): 0 (Herbicidal rate of 5% or less (almost no effect)) | herbicidal effect on barnyard grass (H) (barnyard grass [2]): 0 (Herbicidal rate of 5% or less (almost no effect)) | herbicidal effect on barnyard grass (H) (barnyard grass [1]): 0 (Herbicidal rate of 5% or less (almost no effect)) | herbicidal effect on rice flat sedge (E) (rice flat sedge): 3 (Herbicidal rate of 40% or more and less than 70%) | herbicidal effect on velvetleaf (M) (velvetleaf): 0 (Herbicidal rate of 5% or less (almost no effect)) | herbicidal effect on windgrass (L) (windgrass): 0 (Herbicidal rate of 5% or less (almost no effect)) | herbicidal effect on lambsquarters (O) (lambsquarters): 0 (Herbicidal rate of 5% or less (almost no effect)) | herbicidal effect on blackgrass (J) (blackgrass): 0 (Herbicidal rate of 5% or less (almost no effect)) | herbicidal effect on Chinese sprangletop (D) (Chinese sprangletop): 0 (Herbicidal rate of 5% or less (almost no effect)) | herbicidal effect on persian speedwell (R) (persian speedwell): 0 (Herbicidal rate of 5% or less (almost no effect))

Cc1cc2sc(-c3ccc(F)cc3)c(-c3c(O)c(C)nn(C)c3=O)c2cc1C [5-088]
herbicidal effect on wild oat (I) (wild oat): 0 (Herbicidal rate of 5% or less (almost no effect)) | herbicidal effect on southern crabgrass (F) (southern crabgrass): 0 (Herbicidal rate of 5% or less (almost no effect)) | herbicidal effect on Italian ryegrass (K) (Italian ryegrass): 1 (Herbicidal rate of 5% or more and less than 20%) | herbicidal effect on green foxtail (G) (green foxtail): 0 (Herbicidal rate of 5% or less (almost no effect)) | herbicidal effect on barnyard grass (H) (barnyard grass [2]): 0 (Herbicidal rate of 5% or less (almost no effect)) | herbicidal effect on barnyard grass (H) (barnyard grass [1]): 3 (Herbicidal rate of 40% or more and less than 70%) | herbicidal effect on rice flat sedge (E) (rice flat sedge): 2 (Herbicidal rate of 20% or more and less than 40%) | herbicidal effect on velvetleaf (M) (velvetleaf): 2 (Herbicidal rate of 20% or more and less than 40%) | herbicidal effect on windgrass (L) (windgrass): 0 (Herbicidal rate of 5% or less (almost no effect)) | herbicidal effect on lambsquarters (O) (lambsquarters): 0 (Herbicidal rate of 5% or less (almost no effect)) | herbicidal effect on blackgrass (J) (blackgrass): 0 (Herbicidal rate of 5% or less (almost no effect)) | herbicidal effect on Chinese sprangletop (D) (Chinese sprangletop): 2 (Herbicidal rate of 20% or more and less than 40%) | herbicidal effect on persian speedwell (R) (persian speedwell): 4 (Herbicidal rate of 70% or more and less than 90%)

Cc1nn(C)c(=O)c(-c2c(-c3ccc(OC(F)F)cc3)sc3c(Cl)cccc23)c1O [4-074]
herbicidal effect on barnyard grass (H) (barnyard grass [1]): 4 (Herbicidal rate of 70% or more and less than 90%) | herbicidal effect on rice flat sedge (E) (rice flat sedge): 3 (Herbicidal rate of 40% or more and less than 70%) | herbicidal effect on Chinese sprangletop (D) (Chinese sprangletop): 0 (Herbicidal rate of 5% or less (almost no effect))

CCCC(=O)Oc1c(C)nn(C)c(=O)c1-c1c(-c2ccc(C(F)(F)F)cc2)sc2cc(Cl)c(Cl)cc12 [5-048]
herbicidal effect on barnyard grass (H) (barnyard grass [1]): 3 (Herbicidal rate of 40% or more and less than 70%) | herbicidal effect on rice flat sedge (E) (rice flat sedge): 0 (Herbicidal rate of 5% or less (almost no effect)) | herbicidal effect on Chinese sprangletop (D) (Chinese sprangletop): 4 (Herbicidal rate of 70% or more and less than 90%)
